In the experiment the target is mouse TRPA1 (mTRPA1), Transient receptor potential ankyrin 1 cation channel (Mus musculus, UniProt Q8BLA8). The experiment is described as follows: Fura-2 ratiometric Ca2+ imaging, concentration-response in CHO-K1 cells stably transfected with mTRPA1. Type of experiment: cell-based.

Structures are written as SMILES.

mouse TRPA1 (mTRPA1), Transient receptor potential ankyrin 1 cation channel, sequence (Q8BLA8 whole entry): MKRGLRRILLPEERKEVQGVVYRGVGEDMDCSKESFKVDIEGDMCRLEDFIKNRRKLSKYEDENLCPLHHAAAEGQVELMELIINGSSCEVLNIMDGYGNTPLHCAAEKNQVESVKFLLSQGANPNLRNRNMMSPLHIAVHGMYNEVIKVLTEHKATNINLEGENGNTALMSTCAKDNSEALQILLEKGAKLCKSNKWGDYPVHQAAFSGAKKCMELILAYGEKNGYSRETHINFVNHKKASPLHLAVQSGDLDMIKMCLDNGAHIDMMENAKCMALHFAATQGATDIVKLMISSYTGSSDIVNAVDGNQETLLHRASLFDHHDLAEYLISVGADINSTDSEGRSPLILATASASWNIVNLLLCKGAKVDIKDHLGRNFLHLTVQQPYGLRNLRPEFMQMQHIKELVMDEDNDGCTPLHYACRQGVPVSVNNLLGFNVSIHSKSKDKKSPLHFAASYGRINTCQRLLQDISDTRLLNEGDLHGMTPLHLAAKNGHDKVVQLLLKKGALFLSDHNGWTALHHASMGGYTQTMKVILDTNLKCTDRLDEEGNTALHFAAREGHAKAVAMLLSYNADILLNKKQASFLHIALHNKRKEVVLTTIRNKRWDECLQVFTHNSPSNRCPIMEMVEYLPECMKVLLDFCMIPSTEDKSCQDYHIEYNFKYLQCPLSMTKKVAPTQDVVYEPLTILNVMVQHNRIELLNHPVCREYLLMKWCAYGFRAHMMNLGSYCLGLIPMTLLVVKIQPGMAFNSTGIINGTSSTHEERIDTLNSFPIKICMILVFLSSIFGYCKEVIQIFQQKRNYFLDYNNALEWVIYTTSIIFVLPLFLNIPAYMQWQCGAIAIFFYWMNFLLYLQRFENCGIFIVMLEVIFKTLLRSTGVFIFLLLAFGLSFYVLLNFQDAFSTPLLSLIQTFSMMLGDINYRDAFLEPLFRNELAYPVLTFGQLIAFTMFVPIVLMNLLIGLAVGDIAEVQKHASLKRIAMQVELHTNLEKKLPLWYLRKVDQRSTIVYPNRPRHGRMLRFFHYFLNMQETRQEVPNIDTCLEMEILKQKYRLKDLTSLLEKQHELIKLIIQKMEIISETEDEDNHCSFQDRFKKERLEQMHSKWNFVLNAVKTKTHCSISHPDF

As for `C=CCN=C=S` [AITC, allyl isothiocyanate], a half-maximal effect (EC50) was put at 4.6 ± 1.1 µM.

A word on the EC50: it is the concentration needed to bring the measured effect to its halfway point.

Source of the values: article PMC7312353, “Lipid Raft Destabilization Impairs Mouse TRPA1 Responses to Cold and Bacterial Lipopolysaccharides” (International Journal of Molecular Sciences, 2020).
